Test results from US20030220406A1, “Solutizing agents” (priority 2000, published 2003).

Assay: Solubilizing power: test substances added to 10 g of solubilizer until the solubility limit was reached
Assay type: physicochemical
From the text: Example 1 corresponds to the invention, Examples C1 and C2 are intended for comparison.

[1] = in comparison solubilizer C1 (PEG-40 Hydrogenated Castor Oil 100 % by weight)
[2] = in comparison solubilizer C2 (Cocoeth-8 100 % by weight)
[3] = in solubilizer of Example 1 (Cocoeth-8 40, PPG1-PEG9 Lauryl Glycol Ether 30, PEG-40 Hydrogenated Castor Oil 20, Water 10 % by weight)

Compound	Solubility [1] [g/10 g solubilizer]	Solubility [2] [g/10 g solubilizer]	Solubility [3] [g/10 g solubilizer]
Cc1ccc(C=C2C(=O)C3(C)CCC2C3(C)C)cc1 (stereo not drawn) [4-Methylbenzylidene Camphor]	0.50	0.38	1.10
COc1ccc(C(=O)c2ccccc2)c(O)c1 [Benzophenone-3]	0.40	0.20	0.44
COc1ccc(/C=C/C(=O)OCCC(C)C)cc1 [Isoamyl Methoxycinnamate]	0.60	0.70	1.10
CC1CCC(C(C)C)C(O)C1 (stereo not drawn) [Menthol]	1.10	1.05	4.80
CCCCC(CC)COC(=O)C=Cc1ccc(OC)cc1 (stereo not drawn) [Octyl Methoxycinnamate]	0.45	0.60	1.60
Tocopherol	0.40	0.50	0.90
